For 22 compounds, IC50 results are on record in patent US20240360157A1, “TYK2 INHIBITORS” (BIOGEN MA INC., priority 2021, published 2024).

One may read the IC50 as the midpoint of a concentration-inhibition curve.

Holding throughout (format): biochemical
The target in experiment [1] is human JAK2 catalytic kinase (JH1) domain (Homo sapiens (Human), UniProt O60674). The experiment in a line: ADP-Glo Kinase Assay, recombinant JAK2 catalytic kinase (JH1) domain. The settings on record: recombinant JH1 domain 0.2 nM, 15 μM ATP, JAK3-974 peptide, mean, read-out: JAK2 biochem IC50 (nM) Mean. In outline:
(§1)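 Reactions contain 50 μM peptide and run 100 minutes, with enzyme at 4, 0.2, 0.3 and 2 nM for JAK1, JAK2, JAK3 and TYK2. Generated ADP is read by luminescence; IC50 derives from normalized dose-response curves.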

In experiment [2] the target is human JAK3 catalytic kinase (JH1) domain (Homo sapiens (Human), UniProt P52333). Description: ADP-Glo Kinase Assay, recombinant JAK3 catalytic kinase (JH1) domain. The settings on record: recombinant JH1 domain 0.3 nM, 4 μM ATP, JAK3-974 peptide, mean, read-out: JAK3 biochem IC50 (nM) Mean. In outline:
as §1
(In general: ADP-Glo first removes unused ATP, then detects ADP through luciferase.)

The target of experiment [3] is human TYK2 catalytic kinase (JH1) domain (Homo sapiens (Human), UniProt P29597). The experiment in a line: ADP-Glo Kinase Assay, recombinant TYK2 catalytic kinase (JH1) domain. Conditions: recombinant JH1 domain 2 nM, 10 μM ATP, JAK3-974 peptide, mean, read-out: TYK2 biochem IC50 (nM) Mean. Put shortly: as §1
Chain of human TYK2 catalytic kinase (JH1) domain (P29597 897-1176): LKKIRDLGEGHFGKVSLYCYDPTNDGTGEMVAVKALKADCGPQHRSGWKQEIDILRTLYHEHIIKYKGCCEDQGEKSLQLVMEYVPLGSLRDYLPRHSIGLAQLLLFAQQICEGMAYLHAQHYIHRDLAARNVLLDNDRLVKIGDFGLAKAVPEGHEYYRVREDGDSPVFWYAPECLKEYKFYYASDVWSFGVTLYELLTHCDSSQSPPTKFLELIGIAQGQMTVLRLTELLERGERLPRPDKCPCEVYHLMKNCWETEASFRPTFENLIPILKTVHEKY
In experiment [4] the target is human JAK1 catalytic kinase (JH1) domain (Homo sapiens (Human), UniProt P23458). Description: ADP-Glo Kinase Assay, recombinant JAK1 catalytic kinase (JH1) domain. Conditions: recombinant JH1 domain 4 nM, 35 μM ATP, JAK3-342 peptide, mean, read-out: JAK1 biochem IC50 (nM) Mean. Put shortly: as §1
Chain of human JAK1 catalytic kinase (JH1) domain (P23458 875-1153): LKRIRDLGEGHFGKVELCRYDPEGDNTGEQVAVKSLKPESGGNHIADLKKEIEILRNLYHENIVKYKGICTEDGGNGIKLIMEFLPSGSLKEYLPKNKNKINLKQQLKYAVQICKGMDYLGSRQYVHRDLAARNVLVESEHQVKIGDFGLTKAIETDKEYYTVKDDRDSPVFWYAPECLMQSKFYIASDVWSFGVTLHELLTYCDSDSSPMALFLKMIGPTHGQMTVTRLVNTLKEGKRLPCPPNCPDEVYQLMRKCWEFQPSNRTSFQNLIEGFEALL

Chain of human JAK2 catalytic kinase (JH1) domain (O60674 849-1124): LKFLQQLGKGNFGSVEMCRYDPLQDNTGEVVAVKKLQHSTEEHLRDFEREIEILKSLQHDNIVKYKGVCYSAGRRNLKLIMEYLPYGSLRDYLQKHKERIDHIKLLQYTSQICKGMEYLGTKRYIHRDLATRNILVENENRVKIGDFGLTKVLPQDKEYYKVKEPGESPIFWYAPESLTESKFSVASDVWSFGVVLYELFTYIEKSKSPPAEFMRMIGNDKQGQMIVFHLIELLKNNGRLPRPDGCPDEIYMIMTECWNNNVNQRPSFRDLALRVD
Chain of human JAK3 catalytic kinase (JH1) domain (P52333 822-1111): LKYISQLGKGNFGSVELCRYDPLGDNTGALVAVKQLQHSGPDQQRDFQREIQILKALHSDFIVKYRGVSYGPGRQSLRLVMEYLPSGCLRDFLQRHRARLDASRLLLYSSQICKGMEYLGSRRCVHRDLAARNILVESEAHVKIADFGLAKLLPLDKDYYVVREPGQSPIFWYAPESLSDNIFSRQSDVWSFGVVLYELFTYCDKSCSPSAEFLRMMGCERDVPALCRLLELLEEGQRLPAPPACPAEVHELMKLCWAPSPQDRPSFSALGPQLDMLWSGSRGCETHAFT

For `O=C([C@H]1C[C@H]1F)N1C2CCC1CN(c1ncnn3cc(-c4cnn(C(F)F)c4)cc13)C2` (single isomer, unassigned) [Example 73], the concentration for half-maximal inhibition (IC50) is at least 10000 nM in experiment [1], 8860 nM in experiment [2], 987 nM in experiment [3] and 2350 nM in experiment [4].
In the case of `Cc1cc(-c2cc3c(N4CC5CCC(C4)N5C(=O)[C@@H]4C[C@H]4F)ccnn3c2)ccn1` [Example 100, ((1S,2R)-2-fluorocyclopropyl)(3-(6-(2-methylpyridin-4-yl)pyrrolo[1,2-b]pyridazin-4-yl)-3,8-diazabicyclo[3.2.1]octan-8-yl)methanone], the half-maximal inhibitory concentration (IC50) is 43 nM in experiment [1], 756 nM in experiment [2], 2.5 nM in experiment [3] and 26 nM in experiment [4].
For the compound `O=C([C@@H]1C[C@H]1F)N1C2CCC1CN(c1ccnn3cc(-c4ccnc(C(F)(F)F)c4)cc13)C2` [Example 112, ((1S,2R)-2-fluorocyclopropyl)(3-(6-(2-(trifluoromethyl)pyridin-4-yl)pyrrolo[1,2-b]pyridazin-4-yl)-3,8-diazabicyclo[3.2.1]octan-8-yl)methanone], the IC50 came to 38 nM in experiment [1], 835 nM in experiment [2], 2.9 nM in experiment [3] and 37 nM in experiment [4].
For `O=C([C@@H]1C[C@H]1F)N1C2CCC1CN(c1ncnn3cc(-c4cnn(C(F)F)c4)cc13)C2` [Example 76, (3-(6-(1-(difluoromethyl)-1H-pyrazol-4-yl)pyrrolo[2,1-f][1,2,4]triazin-4-yl)-3,8-diazabicyclo[3.2.1]octan-8-yl)((1S,2R)-2-fluorocyclopropyl)methanone] the same measures were 850 nM, 6270 nM, 23.1 nM and 574 nM.
For the compound `COc1ccc(-c2cc3c(N4CC5CCC(C4)N5C(=O)C4CC4)ncnn3c2)cc1C#N` [Example 185], the IC50 in experiment [1] is 10000 nM; in experiment [2], 10000 nM; in experiment [3], 398 nM; in experiment [4] it was 2540 nM.
In the case of `Cn1cc(-c2cc3c(N4CC5CCC(C4)N5C(=O)[C@@H]4C[C@H]4F)ncnn3c2)ccc1=O` [Example 165], the IC50 is 902 nM in experiment [1], 4140 nM in experiment [2], 40.3 nM in experiment [3] and 478 nM in experiment [4].
For `COc1cc(-c2cc3c(N4CC5CCC(C4)N5S(=O)(=O)C4CC4)ncnc3[nH]2)ccn1` [Example 192] the same measures were 3060 nM, 10000 nM, 298 nM and 1860 nM.
On the same counts, the results for `O=C([C@H]1C[C@@H]1CO)N1C2CCC1CN(c1ncnn3cc(-c4cnn(C(F)F)c4)cc13)C2` (single isomer, unassigned) [Example 39] are 9090 nM, 6380 nM, 762 nM and 2130 nM.
For the compound `CNc1ccc(-c2cc3c(N4CC5CCC(C4)N5C(=O)[C@@H]4C[C@H]4F)ccnn3c2)cn1` [Example 129, ((1S,2R)-2-fluorocyclopropyl)(3-(6-(6-(methylamino)pyridin-3-yl)pyrrolo[1,2-b]pyridazin-4-yl)-3,8-diazabicyclo[3.2.1]octan-8-yl)methanone], the IC50 in experiment [1] amounted to 73 nM; in experiment [2], 658 nM; in experiment [3], 3.8 nM; in experiment [4], 69 nM.
For `CC(C)C(=O)N1C2CCC1CN(c1ncnn3cc(-c4cnn(C(F)F)c4)cc13)C2` [Example 42, 1-(3-(6-(1-(difluoromethyl)-1H-pyrazol-4-yl)pyrrolo[2,1-f][1,2,4]triazin-4-yl)-3,8-diazabicyclo[3.2.1]octan-8-yl)-2-methylpropan-1-one] the same measures were 7960 nM, 9510 nM, 466 nM and 5220 nM.
Take `O=C([C@@H]1C[C@H]1F)N1C2CCC1CN(c1ncnn3cc(-c4ccnnc4)cc13)C2` [Example 90, ((1S,2R)-2-fluorocyclopropyl)(3-(6-(pyridazin-4-yl)pyrrolo[2,1-f][1,2,4]triazin-4-yl)-3,8-diazabicyclo[3.2.1]octan-8-yl)methanone]: the IC50 in experiment [1] is 3060 nM; in experiment [2], 10000 nM; in experiment [3], 124 nM; in experiment [4], 1120 nM.
On the same counts, the results for `O=C(C1CC(F)C1)N1C2CCC1CN(c1ncnn3cc(-c4cnn(C(F)F)c4)cc13)C2` (stereo not shown) [Example 48, (3-(6-(1-(difluoromethyl)-1H-pyrazol-4-yl)pyrrolo[2,1-f][1,2,4]triazin-4-yl)-3,8-diazabicyclo[3.2.1]octan-8-yl)(3-fluorocyclobutyl)methanone] are 8770 nM, 9430 nM, 483 nM and 3780 nM.
As to `Cn1ncc(-c2cc3c(N4CC5CCC(C4)N5C(=O)[C@@H]4C[C@H]4F)ccnn3c2)c1F` [Example 133, (3-(6-(5-fluoro-1-methyl-1H-pyrazol-4-yl)pyrrolo[1,2-b]pyridazin-4-yl)-3,8-diazabicyclo[3.2.1]octan-8-yl)((1S,2R)-2-fluorocyclopropyl)methanone], the IC50 was 112 nM in experiment [1], 856 nM in experiment [2], 6 nM in experiment [3] and 124 nM in experiment [4].
For `O=C(C1CC1)N1C2CCC1CN(c1ccnc3[nH]c(-c4cnn(C(F)F)c4)nc13)C2` [Example 214, cyclopropyl(3-(2-(1-(difluoromethyl)-1H-pyrazol-4-yl)-3H-imidazo[4,5-b]pyridin-7-yl)-3,8-diazabicyclo[3.2.1]octan-8-yl)methanone] the same measures were 62 nM, 346 nM, 7.6 nM and 94 nM.
For `COc1cc(-c2cn3ncc(F)c(N4CC5CCC(C4)N5C(=O)[C@@H]4C[C@H]4F)c3n2)ccn1` (stereo in doubt) [Example 142, (3-(7-fluoro-2-(2-methoxypyridin-4-yl)imidazo[1,2-b]pyridazin-8-yl)-3,8-diazabicyclo[3.2.1]octan-8-yl)((1S,2R)-2-fluorocyclopropyl)methanone] the same measures were 270 nM, 514 nM, 19.6 nM and 46 nM.
For `Cn1cc(-c2cc3c(N4CC5CCC(C4)N5C(=O)C4CC4)ncnn3c2)cn1` [Example 146, cyclopropyl(3-(6-(1-methyl-1H-pyrazol-4-yl)pyrrolo[2,1-f][1,2,4]triazin-4-yl)-3,8-diazabicyclo[3.2.1]octan-8-yl)methanone] the same measures were 5850 nM, 3240 nM, 166 nM and 1880 nM.
Regarding `Cn1cc(-c2cc3c(N4CC5CCC(C4)N5S(=O)(=O)[C@H]4CC4(F)F)ccnn3c2)cn1` [Example 197, 4-(8-(((S)-2,2-difluorocyclopropyl)sulfonyl)-3,8-diazabicyclo[3.2.1]octan-3-yl)-6-(1-methyl-1H-pyrazol-4-yl)pyrrolo[1,2-b]pyridazine], the IC50 in experiment [1] worked out at 99 nM; in experiment [2], 701 nM; in experiment [3], 16.7 nM; in experiment [4], 322 nM.
Regarding `Cc1cc(-c2cc3c(N4CC5CCC(C4)N5C(=O)[C@@H]4C[C@H]4F)ncnc3[nH]2)ccn1` [Example 230, ((1S,2R)-2-fluorocyclopropyl)(3-(6-(2-methylpyridin-4-yl)-7H-pyrrolo[2,3-d]pyrimidin-4-yl)-3,8-diazabicyclo[3.2.1]octan-8-yl)methanone], the IC50 was found to be 218 nM in experiment [1], 742 nM in experiment [2], 8.2 nM in experiment [3] and 91 nM in experiment [4].
On the same counts, the results for `Cn1cc(-c2cc3c(N4CC5CCC(C4)N5C(=O)[C@@H]4CC4(F)F)ccnn3c2)cn1` [Example 22, ((S)-2,2-difluorocyclopropyl)(3-(6-(1-methyl-1H-pyrazol-4-yl)pyrrolo[1,2-b]pyridazin-4-yl)-3,8-diazabicyclo[3.2.1]octan-8-yl)methanone] are 32 nM, 445 nM, 1.8 nM and 55 nM.
For `O=C(C1CC1)N1C2CCC1CN(c1ncnn3cc(-c4ccnc(Cl)c4)cc13)C2` [Example 180] the same measures were 10000 nM, 10000 nM, 547 nM and 4750 nM.
On the same counts, the results for `O=C(N1C2CCC1CN(c1ncnn3cc(-c4cnn(C(F)F)c4)cc13)C2)C1(F)CC1` [Example 50, (3-(6-(1-(difluoromethyl)-1H-pyrazol-4-yl)pyrrolo[2,1-f][1,2,4]triazin-4-yl)-3,8-diazabicyclo[3.2.1]octan-8-yl)(1-fluorocyclopropyl)methanone] are 6150 nM, 2020 nM, 295 nM and 1040 nM.
In the case of `O=C(C1CC1)N1C2CCC1CN(c1ncnn3cc(-c4cccnc4)cc13)C2` [Example 183], the IC50 amounted to 10000 nM in experiment [1], 8640 nM in experiment [2], 557 nM in experiment [3] and 3290 nM in experiment [4].
